pIC50: −log10 of the molar value. “Also recorded” adds a separate entry of the source.
Experiments:
[1] = Six-month stability study of topical gel formulations including Compound 1.002; assay type: physicochemical; details: 40° C./75% RH
Method: Unless otherwise indicated, a HPLC method was used to determine the content of Compound 1.002 and impurities; ASTM D 1544 was used as the standard test method for color of gel formulations; a gas chromatographic method was used to determine the content of oleic acid; and Brookfield viscometer was used to measure viscosity (cP) of gel formulations.
(§1) The gel formulation in HPLC glass vials was subjected to stability study at 40° C./75%0 RH for 6 months. A purity of Compound 1.002 on month 0, 1, 3, and 6 month at 40° C./75% RH was determined by HPLC. The detected impurity of Compound 1.002 appears to be the hydrolysis product, as MTPP. Table 21 represents stability data of Compound 1.002 in the topical formulation having 1000 oleic acid. […]
as §1, with “Lablabo Amcor Foil 18 mL containers” for “HPLC glass vials”, “C./75%” for “C./75%0”, “3, 4, 5,” for “3,”, “25” for “21”, “10%” for “1000”, “alcohol and 40% DPG.” for “acid.”

MTOR/FRAP1 = molecular target: T1, MTOR/FRAP1 (Homo sapiens, UniProt P42345); assay: Lipid kinase inhibitory activity, ADP-Glo; assay type: biochemical
T1 construct: purchased Reaction Biology Corporation (RBC)
Method: (§2) Lipid kinases: Lipid kinases from Reaction Biology Corporation (RBC) in ADP-Glo format were used.
(§3) Assay Description: The kinase reactions utilized ATP and produced ADP as a byproduct. The ADP production was quantified by ADP-Glo luminescence detection. This assay was a 3-step reaction. First, the kinase reaction with lipid substrate was carried out in the presence of ATP, and the reaction was quenched and depleted remaining ATP with ADP-Glo™ reagent, and then finally ADP was converted to ATP which was measured using a luciferase/luciferin reaction.
(§4) Assay Procedure: The assay was performed according to the steps as follows: • 1. Preparing substrate in freshly prepared reaction buffer; • 2. Delivering kinase into the substrate solution and gently mixing; • 3. Delivering compounds in […] into the kinase reaction mixture by Acoustic technology (Echo550; nanoliter range), incubating for 20 minutes at room temperature; • 4. Delivering ATP into the reaction mixture to initiate the reaction; • 5. Incubating for 30 minutes at 30° C.; • 6. Quenching the reaction with ADP-Glo reagent and incubating for 40 minutes; • 7. Adding Detection Mixture and incubating for 30 minutes; and • 8. Measuring luminescence.
(§5) Data Analysis: The luminescence was converted into μM ADP production based on ADP standard curves. The nonlinear regression to obtain the standard curve and IC50 values were performed using Graphpad Prism software.

PI3K (p110a(E542K)/p85a) = molecular target: T2, PI3K (p110a(E542K)/p85a) (Homo sapiens, UniProt P42336, E542K); assay: Lipid kinase inhibitory activity, ADP-Glo; assay type: biochemical; details: α E542K
T2 construct: purchased Reaction Biology Corporation (RBC)
T2 sequence (P42336 whole entry E542K): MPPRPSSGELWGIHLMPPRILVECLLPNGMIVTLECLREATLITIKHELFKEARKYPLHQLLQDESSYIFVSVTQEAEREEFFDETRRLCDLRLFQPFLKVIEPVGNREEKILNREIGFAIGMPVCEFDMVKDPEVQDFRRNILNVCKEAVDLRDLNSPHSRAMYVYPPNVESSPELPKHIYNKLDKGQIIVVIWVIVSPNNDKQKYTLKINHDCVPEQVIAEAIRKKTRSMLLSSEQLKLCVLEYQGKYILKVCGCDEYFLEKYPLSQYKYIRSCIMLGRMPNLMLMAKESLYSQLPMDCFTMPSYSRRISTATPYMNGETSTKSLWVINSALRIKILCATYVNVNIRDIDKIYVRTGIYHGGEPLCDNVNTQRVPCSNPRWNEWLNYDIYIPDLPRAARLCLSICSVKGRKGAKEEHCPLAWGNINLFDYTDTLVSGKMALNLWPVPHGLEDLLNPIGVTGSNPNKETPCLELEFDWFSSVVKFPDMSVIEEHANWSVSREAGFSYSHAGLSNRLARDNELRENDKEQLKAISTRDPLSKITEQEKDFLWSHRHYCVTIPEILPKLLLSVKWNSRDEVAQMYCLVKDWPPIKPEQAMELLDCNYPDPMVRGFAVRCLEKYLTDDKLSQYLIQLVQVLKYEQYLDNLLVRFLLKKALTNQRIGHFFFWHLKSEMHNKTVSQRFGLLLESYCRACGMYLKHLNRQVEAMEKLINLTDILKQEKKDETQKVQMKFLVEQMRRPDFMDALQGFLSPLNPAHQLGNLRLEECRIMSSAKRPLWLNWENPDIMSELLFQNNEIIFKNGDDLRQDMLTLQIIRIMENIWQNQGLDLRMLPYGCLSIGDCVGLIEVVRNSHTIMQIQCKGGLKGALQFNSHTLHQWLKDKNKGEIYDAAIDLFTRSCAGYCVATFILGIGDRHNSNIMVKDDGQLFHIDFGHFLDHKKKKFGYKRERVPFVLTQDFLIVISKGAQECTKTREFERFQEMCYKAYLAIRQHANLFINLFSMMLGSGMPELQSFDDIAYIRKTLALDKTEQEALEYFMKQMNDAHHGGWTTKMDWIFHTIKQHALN
T2 sequence (P27986 whole entry partner): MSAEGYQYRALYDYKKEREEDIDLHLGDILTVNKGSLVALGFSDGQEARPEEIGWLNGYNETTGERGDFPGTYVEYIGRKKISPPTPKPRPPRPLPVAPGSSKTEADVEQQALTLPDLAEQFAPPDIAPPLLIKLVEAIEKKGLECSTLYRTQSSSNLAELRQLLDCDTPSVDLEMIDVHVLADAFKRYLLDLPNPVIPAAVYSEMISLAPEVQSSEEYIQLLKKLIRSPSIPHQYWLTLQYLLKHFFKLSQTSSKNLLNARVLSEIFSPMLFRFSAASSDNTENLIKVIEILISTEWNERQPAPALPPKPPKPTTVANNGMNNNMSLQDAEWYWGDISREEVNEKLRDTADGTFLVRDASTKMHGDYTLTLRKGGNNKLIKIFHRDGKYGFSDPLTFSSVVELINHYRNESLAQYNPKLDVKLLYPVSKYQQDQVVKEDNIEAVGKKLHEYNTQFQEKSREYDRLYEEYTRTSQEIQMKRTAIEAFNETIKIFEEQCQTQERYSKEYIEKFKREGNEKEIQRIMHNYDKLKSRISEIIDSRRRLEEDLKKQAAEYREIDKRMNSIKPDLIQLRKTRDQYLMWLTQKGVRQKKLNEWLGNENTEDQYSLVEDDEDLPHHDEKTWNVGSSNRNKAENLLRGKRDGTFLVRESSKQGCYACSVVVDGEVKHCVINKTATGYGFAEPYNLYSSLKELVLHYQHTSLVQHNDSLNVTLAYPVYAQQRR
Method: as §2, §3, §4, §5

PI3K (p110a(E545K)/p85a) = molecular target: T3, PI3K (p110a(E545K)/p85a) (Homo sapiens, UniProt P42336, E545K); assay: Lipid kinase inhibitory activity, ADP-Glo; assay type: biochemical; details: α E545K
T3 construct: purchased Reaction Biology Corporation (RBC)
T3 sequence (P42336 whole entry E545K): as the sequence (P42336 whole entry E542K) above, with K542E, E545K counted along it
T3 sequence (P27986 whole entry partner): as the sequence (P27986 whole entry partner) above
Method: as §2, §3, §4, §5

[2] = molecular target: T4, PI3K (p110a(H1047R)/p85a) (Homo sapiens, UniProt P42336, H1047R); assay: Lipid kinase inhibitory activity, ADP-Glo; assay type: biochemical; details: α H1047R
T4 construct: purchased Reaction Biology Corporation (RBC)
T4 sequence (P42336 whole entry H1047R): as the sequence (P42336 whole entry E542K) above, with K542E, H1047R counted along it
T4 sequence (P27986 whole entry partner): as the sequence (P27986 whole entry partner) above
Method: as §2, §3, §4, §5

PI3Ka (p110a/p85a) = molecular target: T5, PI3Ka (p110a/p85a) (Homo sapiens, UniProt P42336); assay: Lipid kinase inhibitory activity, ADP-Glo; assay type: biochemical; details: α
T5 construct: purchased Reaction Biology Corporation (RBC)
T5 sequence (P42336 whole entry): as the sequence (P42336 whole entry E542K) above, with K542E counted along it
T5 sequence (P27986 whole entry partner): as the sequence (P27986 whole entry partner) above
Method: as §2, §3, §4, §5

PI3Kb (p110b/p85a) = molecular target: T6, PI3Kb (p110b/p85a) (Homo sapiens, UniProt P42338); assay: Lipid kinase inhibitory activity, ADP-Glo; assay type: biochemical; details: β
T6 construct: purchased Reaction Biology Corporation (RBC)
T6 sequence (P42338 whole entry): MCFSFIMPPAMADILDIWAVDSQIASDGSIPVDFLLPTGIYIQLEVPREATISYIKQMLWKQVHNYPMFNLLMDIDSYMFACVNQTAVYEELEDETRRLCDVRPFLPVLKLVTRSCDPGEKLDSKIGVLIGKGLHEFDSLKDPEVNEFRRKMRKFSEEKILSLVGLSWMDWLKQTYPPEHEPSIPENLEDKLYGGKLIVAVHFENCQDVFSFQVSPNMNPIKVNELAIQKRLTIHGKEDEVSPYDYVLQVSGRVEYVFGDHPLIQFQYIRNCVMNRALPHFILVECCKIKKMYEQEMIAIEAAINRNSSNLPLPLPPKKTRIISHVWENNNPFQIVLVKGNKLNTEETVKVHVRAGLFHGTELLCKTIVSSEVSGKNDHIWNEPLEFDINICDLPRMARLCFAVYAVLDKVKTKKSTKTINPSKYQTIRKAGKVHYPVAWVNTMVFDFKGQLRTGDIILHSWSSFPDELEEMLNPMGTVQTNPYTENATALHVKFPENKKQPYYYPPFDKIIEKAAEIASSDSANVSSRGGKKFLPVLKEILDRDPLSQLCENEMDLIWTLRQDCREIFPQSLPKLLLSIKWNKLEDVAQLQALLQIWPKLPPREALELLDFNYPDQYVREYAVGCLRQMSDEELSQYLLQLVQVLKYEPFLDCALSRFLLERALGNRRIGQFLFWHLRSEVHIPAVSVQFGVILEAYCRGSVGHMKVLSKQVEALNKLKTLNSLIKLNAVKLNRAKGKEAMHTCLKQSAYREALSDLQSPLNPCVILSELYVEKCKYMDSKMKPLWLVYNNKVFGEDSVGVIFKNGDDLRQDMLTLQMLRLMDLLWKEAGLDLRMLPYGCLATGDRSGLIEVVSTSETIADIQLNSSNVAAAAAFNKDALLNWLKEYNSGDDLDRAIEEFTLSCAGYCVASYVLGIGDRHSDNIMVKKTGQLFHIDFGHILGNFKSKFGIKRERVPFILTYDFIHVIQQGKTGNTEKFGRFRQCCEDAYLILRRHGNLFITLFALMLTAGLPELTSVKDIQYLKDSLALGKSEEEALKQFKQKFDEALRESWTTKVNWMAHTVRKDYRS
T6 sequence (P27986 whole entry partner): as the sequence (P27986 whole entry partner) above
Method: as §2, §3, §4, §5

PI3Kd (p110d/p85a) = molecular target: T7, PI3Kd (p110d/p85a) (Homo sapiens, UniProt O00329); assay: Lipid kinase inhibitory activity, ADP-Glo; assay type: biochemical; details: δ
T7 construct: purchased Reaction Biology Corporation (RBC)
T7 sequence (O00329 whole entry): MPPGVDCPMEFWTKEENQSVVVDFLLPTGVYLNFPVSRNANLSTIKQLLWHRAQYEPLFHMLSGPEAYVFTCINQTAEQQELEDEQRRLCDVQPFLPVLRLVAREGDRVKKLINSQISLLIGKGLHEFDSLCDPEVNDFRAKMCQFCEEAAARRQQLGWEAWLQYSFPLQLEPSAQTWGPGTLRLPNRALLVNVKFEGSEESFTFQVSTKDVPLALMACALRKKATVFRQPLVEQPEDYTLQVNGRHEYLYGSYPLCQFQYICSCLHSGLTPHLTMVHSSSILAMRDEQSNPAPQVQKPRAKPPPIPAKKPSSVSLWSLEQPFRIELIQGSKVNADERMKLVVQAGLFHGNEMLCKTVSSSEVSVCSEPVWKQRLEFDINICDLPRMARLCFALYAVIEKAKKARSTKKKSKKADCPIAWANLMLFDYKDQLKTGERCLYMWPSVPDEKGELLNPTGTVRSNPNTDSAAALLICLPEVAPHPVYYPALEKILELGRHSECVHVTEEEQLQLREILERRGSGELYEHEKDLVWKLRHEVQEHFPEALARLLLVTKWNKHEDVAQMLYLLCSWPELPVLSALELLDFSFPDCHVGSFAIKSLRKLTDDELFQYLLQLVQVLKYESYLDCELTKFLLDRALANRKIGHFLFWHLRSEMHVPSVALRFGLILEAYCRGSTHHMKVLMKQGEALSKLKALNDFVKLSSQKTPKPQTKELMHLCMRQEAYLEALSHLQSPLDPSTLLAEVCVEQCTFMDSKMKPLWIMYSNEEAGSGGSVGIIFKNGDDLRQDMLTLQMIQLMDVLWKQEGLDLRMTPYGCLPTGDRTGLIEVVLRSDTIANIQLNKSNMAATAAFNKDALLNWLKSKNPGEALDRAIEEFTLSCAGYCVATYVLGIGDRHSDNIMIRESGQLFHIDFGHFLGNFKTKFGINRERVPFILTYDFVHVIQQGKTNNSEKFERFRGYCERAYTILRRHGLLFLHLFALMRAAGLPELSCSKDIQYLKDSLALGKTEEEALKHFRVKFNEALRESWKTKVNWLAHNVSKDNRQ
T7 sequence (P27986 whole entry partner): as the sequence (P27986 whole entry partner) above
Method: as §2, §3, §4, §5

PI3Kg (p110g) = molecular target: T8, PI3Kg (p110g) (Homo sapiens, UniProt P48736); assay: Lipid kinase inhibitory activity, ADP-Glo; assay type: biochemical; details: γ
T8 construct: purchased Reaction Biology Corporation (RBC)
Method: as §2, §3, §4, §5

[3] = Table 20 gel (10% oleic acid, DPG), HPLC glass vials, month 0
[4] = Table 20 gel (10% oleic acid, DPG), HPLC glass vials, month 1
[5] = Table 20 gel (10% oleic acid, DPG), HPLC glass vials, month 3
[6] = Table 20 gel (10% oleic acid, DPG), HPLC glass vials, month 6
[7] = Table 24 gel (10% oleyl alcohol, 40% DPG), Lablabo Amcor Foil 18 mL containers, month 0
[8] = Table 24 gel (10% oleyl alcohol, 40% DPG), Lablabo Amcor Foil 18 mL containers, month 1
[9] = Table 24 gel (10% oleyl alcohol, 40% DPG), Lablabo Amcor Foil 18 mL containers, month 3
[10] = Table 24 gel (10% oleyl alcohol, 40% DPG), Lablabo Amcor Foil 18 mL containers, month 4
[11] = Table 24 gel (10% oleyl alcohol, 40% DPG), Lablabo Amcor Foil 18 mL containers, month 5
[12] = Table 24 gel (10% oleyl alcohol, 40% DPG), Lablabo Amcor Foil 18 mL containers, month 6

- Appearance [1, 3]: Clear,; also recorded: no crystals
- Compound 1.002 Relative Purity [1, 3]: 100.0%
- Compound 1.002 content [1, 3]: 106.6 mg/mL
- MTPP (Relative Purity) [1, 3]: 0.0%
- Other impurity (Relative Purity) [1, 3]: 0.0%
- Viscosity [1, 3]: 11,800 cP
- Appearance [1, 4]: Clear,; also recorded: no crystals
- Compound 1.002 Relative Purity [1, 4]: 98.4%
- Compound 1.002 content [1, 4]: 106.0 mg/mL
- MTPP (Relative Purity) [1, 4]: 1.2%
- Other impurity (Relative Purity) [1, 4]: 0.4%
- Viscosity [1, 4]: 12,600 cP
- Appearance [1, 5]: Clear,; also recorded: no crystals
- Compound 1.002 Relative Purity [1, 5]: 97.5%
- Compound 1.002 content [1, 5]: 107.0 mg/mL
- MTPP (Relative Purity) [1, 5]: 2.5%
- Other impurity (Relative Purity) [1, 5]: 0.0%
- Viscosity [1, 5]: 11,780 cP
- Appearance [1, 6]: Clear,; also recorded: no crystals
- Compound 1.002 Relative Purity [1, 6]: 95.1%
- Compound 1.002 content [1, 6]: 109.1 mg/mL
- MTPP (Relative Purity) [1, 6]: 4.9%
- Other impurity (Relative Purity) [1, 6]: 0.0%
- Viscosity [1, 6]: 12,760 cP
- Compound 1.002 Relative Purity [1, 7]: 100%
- Compound 1.002 content [1, 7]: 65.9 mg/mL
- MTPP (Relative Purity) [1, 7]: 0.0%
- Visual Appearance [1, 7]: no crystals
- Compound 1.002 Relative Purity [1, 8]: 98.9%
- Compound 1.002 content [1, 8]: 66.5 mg/mL
- MTPP (Relative Purity) [1, 8]: 1.1%
- Visual Appearance [1, 8]: no crystals
- Compound 1.002 Relative Purity [1, 9]: 99.0%
- Compound 1.002 content [1, 9]: 65.9 mg/mL
- MTPP (Relative Purity) [1, 9]: 1.0%
- Visual Appearance [1, 9]: no crystals
- Compound 1.002 Relative Purity [1, 10]: 97.0%
- Compound 1.002 content [1, 10]: 66.5 mg/mL
- MTPP (Relative Purity) [1, 10]: 3.0%
- Visual Appearance [1, 10]: no crystals
- Compound 1.002 Relative Purity [1, 11]: 97.3%
- Compound 1.002 content [1, 11]: 67.8 mg/mL
- MTPP (Relative Purity) [1, 11]: 2.7%
- Visual Appearance [1, 11]: no crystals
- Compound 1.002 Relative Purity [1, 12]: 90.0%
- Compound 1.002 content [1, 12]: 51.1 mg/mL
- MTPP (Relative Purity) [1, 12]: 10.0%
- Visual Appearance [1, 12]: no crystals
- pIC50 (MTOR/FRAP1): 5.85
- pIC50 (PI3K (p110a(E542K)/p85a)): 7.38
- pIC50 (PI3K (p110a(E545K)/p85a)): 7.31
- pIC50 [2]: 7.23
- pIC50 (PI3Ka (p110a/p85a)): 7.46
- pIC50 (PI3Kb (p110b/p85a)): 6.59
- pIC50 (PI3Kd (p110d/p85a)): 7.08
- pIC50 (PI3Kg (p110g)): 6.26
Structure (SMILES): CC(=O)Oc1cccc(-c2nc(N3CCOCC3)c3sccc3n2)c1 [Compound 1.002, 3-(4-Morpholinothieno[3,2-d]pyrimidin-2-yl)phenyl Acetate]
